Assay results from the supplement of paper PMC10307832.

Tests used:
Test in all cases: relative viability (nuclei count vs DMSO), 5 days (fraction); higher = more cells survive
Bortezomib + Navitoclax = compound: CC(C)C[C@H](NC(=O)[C@H](Cc1ccccc1)NC(=O)c1cnccn1)B(O)O [Bortezomib] + CC1(C)CCC(c2ccc(Cl)cc2)=C(CN2CCN(c3ccc(C(=O)NS(=O)(=O)c4ccc(N[C@H](CCN5CCOCC5)CSc5ccccc5)c(S(=O)(=O)C(F)(F)F)c4)cc3)CC2)C1 [Navitoclax] (partner 0.5 µM)
Procedure, shortened: (§1)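 Cells from lung cancer lines were seeded into 1536-well plates and, one day later, dosed by pin tool. Treatments were either a single drug or a fixed dose of an anchor drug with five library-drug doses (not always all listed) in √10 steps. After 5 days, nuclei were stained in a one-step fixation (final 0.05% Triton X-100, 1% formaldehyde, 1 ug/ml Hoechst) and counted on 4× images, and relative viability is the treated-to-vehicle nuclei ratio, as the median of duplicate plates.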

Obatoclax + Pemetrexed = compound: COC1=CC(c2cc3ccccc3[nH]2)=N/C1=C\c1[nH]c(C)cc1C [Obatoclax] + Nc1nc2[nH]cc(CCc3ccc(C(=O)N[C@@H](CCC(=O)O)C(=O)O)cc3)c2c(=O)[nH]1 [Pemetrexed] (partner 0.2 µM)
Procedure, shortened: as §1

Bortezomib + Phenformin = compound: CC(C)C[C@H](NC(=O)[C@H](Cc1ccccc1)NC(=O)c1cnccn1)B(O)O [Bortezomib] + N=C(N)NC(=N)NCCc1ccccc1 [Phenformin] (partner 250 µM)
Procedure, shortened: as §1

Obatoclax + Palbociclib = compound: COC1=CC(c2cc3ccccc3[nH]2)=N/C1=C\c1[nH]c(C)cc1C [Obatoclax] + CC(=O)c1c(C)c2cnc(Nc3ccc(N4CCNCC4)cn3)nc2n(C2CCCC2)c1=O [Palbociclib] (partner 0.5 µM)
Procedure, shortened: as §1

Cell Line | relative viability (Bortezomib + Navitoclax; first compound 0.0002 µM) | relative viability (Bortezomib + Navitoclax; first compound 0.000632 µM) | relative viability (Bortezomib + Navitoclax; first compound 0.002 µM) | relative viability (Bortezomib + Navitoclax; first compound 0.006325 µM) | relative viability (Bortezomib + Navitoclax; first compound 0.02 µM) | relative viability (Obatoclax + Pemetrexed; first compound 0.01 µM) | relative viability (Obatoclax + Pemetrexed; first compound 0.03162 µM) | relative viability (Obatoclax + Pemetrexed; first compound 0.1 µM) | relative viability (Obatoclax + Pemetrexed; first compound 0.3162 µM) | relative viability (Obatoclax + Pemetrexed; first compound 1 µM) | relative viability (Bortezomib + Phenformin; first compound 0.0002 µM) | relative viability (Bortezomib + Phenformin; first compound 0.000632 µM) | relative viability (Bortezomib + Phenformin; first compound 0.002 µM) | relative viability (Bortezomib + Phenformin; first compound 0.006325 µM) | relative viability (Bortezomib + Phenformin; first compound 0.02 µM) | relative viability (Obatoclax + Palbociclib; first compound 0.01 µM) | relative viability (Obatoclax + Palbociclib; first compound 0.03162 µM) | relative viability (Obatoclax + Palbociclib; first compound 0.1 µM) | relative viability (Obatoclax + Palbociclib; first compound 0.3162 µM) | relative viability (Obatoclax + Palbociclib; first compound 1 µM)
NCI-H2087 | 0.991 | 1.02 | 0.509 | 0.0888 | 0.0686 | 0.623 | 0.675 | 0.688 | 0.674 | 0.473 | 0.451 | 0.441 | 0.312 | 0.0487 | 0.0431 | 0.212 | 0.216 | 0.183 | 0.231 | 0.116
COR-L 105 | 0.745 | 0.786 | 0.684 | 0.291 | 0.253 | 1.13 | 1.01 | 1.15 | 1.27 | 0.584 | 0.542 | 0.4 | 0.428 | 0.328 | 0.256 | 0.408 | 0.441 | 0.375 | 0.361 | 0.341
LCLC-97TM1 | 0.586 | 0.451 | 0.186 | 0.222 | 0.0968 | 0.171 | 0.188 | 0.18 | 0.178 | 0.161 | 0.426 | 0.403 | 0.433 | 0.257 | 0.159 | 0.193 | 0.223 | 0.204 | 0.199 | 0.25
NCI-H520 | 1 | 0.959 | 0.347 | 0.145 | 0.157 | 0.657 | 0.714 | 0.656 | 0.643 | 0.249 | 0.599 | 0.669 | 0.422 | 0.213 | 0.17 | 0.287 | 0.23 | 0.331 | 0.187 | 0.151
NCI-H1993 | 0.94 | 0.982 | 1.01 | 0.52 | 0.48 | 0.593 | 0.544 | 0.727 | 0.545 | 0.346 | 0.489 | 0.458 | 0.512 | 0.419 | 0.464 | 0.703 | 0.611 | 0.692 | 0.693 | 0.686
NCI-H1437 | 1.08 | 1.09 | 1.1 | 0.118 | 0.123 | 0.305 | 0.344 | 0.324 | 0.307 | 0.319 | 0.385 | 0.28 | 0.278 | 0.129 | 0.133 | 0.306 | 0.311 | 0.324 | 0.31 | 0.237
LC-2-ad | 0.422 |  | 0.543 | 0.0995 | 0.0978 | 0.268 | 0.285 | 0.261 | 0.264 | 0.285 | 0.686 | 0.507 | 0.557 | 0.19 | 0.146 | 0.428 | 0.46 | 0.489 | 0.464 | 0.438
HARA | 1.14 | 1.16 | 1.12 | 0.075 | 0.108 | 0.236 | 0.293 | 0.249 | 0.262 | 0.303 | 0.374 | 0.447 | 0.512 | 0.222 | 0.0528 | 0.314 | 0.224 | 0.285 | 0.242 | 0.216
NCI-H522 |  |  |  |  |  | 0.955 | 1 | 1.33 | 1.09 | 0.872 | 0.58 | 0.618 | 0.573 | 0.62 | 0.448 | 1.05 | 1.04 | 1.03 | 1.02 | 0.892
ABC-1 |  |  |  |  |  |  |  |  |  |  | 0.231 | 0.227 | 0.202 | 0.186 | 0.175 | 0.838 | 0.717 | 0.595 | 0.609 | 0.454
NCI-H1563 |  |  |  |  |  | 0.803 | 0.713 | 0.583 | 0.727 | 0.896 | 0.742 | 0.659 | 0.636 | 0.518 | 0.465 |  |  |  |  | 
NCI-H1703 | 1.21 | 1.01 | 0.188 | 0.139 | 0.085 |  |  |  |  |  |  |  |  |  |  |  |  |  |  | 
NCI-H661 |  |  |  |  |  | 0.883 | 0.975 | 0.933 | 0.874 | 0.848 | 0.286 | 0.292 | 0.302 | 0.239 | 0.204 | 0.393 | 0.397 | 0.465 | 0.413 | 0.34
NCI-H1648 |  |  |  |  |  | 0.758 | 0.746 | 1.06 | 0.64 | 0.782 |  |  |  |  |  | 0.303 | 0.258 | 0.28 | 0.275 | 0.246
LCLC-103H |  |  |  |  |  | 0.461 | 0.487 | 0.379 | 0.519 | 0.528 | 0.361 | 0.32 | 0.299 | 0.178 | 0.135 | 0.432 | 0.356 | 0.472 | 0.517 | 0.446
NCI-H727 | 0.455 | 0.511 | 0.541 | 0.167 | 0.103 |  |  |  |  |  | 0.542 | 0.475 | 0.548 | 0.301 | 0.178 | 0.608 | 0.618 | 0.779 | 0.62 | 0.646
SW 900 |  |  |  |  |  | 0.494 | 0.303 | 0.527 | 0.48 | 0.446 | 0.534 | 0.548 | 0.13 | 0.123 | 0.0977 | 0.619 | 0.543 | 0.605 | 0.475 | 0.363
EBC-1 | 0.439 | 0.299 | 0.195 | 0.0921 | 0.104 |  |  |  |  |  |  |  |  |  |  |  |  |  |  | 
NCI-H1299 | 0.981 | 0.988 | 1.01 | 0.397 | 0.142 |  |  |  |  |  |  |  |  |  |  |  |  |  |  | 
A549 | 1.14 | 1.22 | 1.07 | 0.0316 | 0.0335 |  |  |  |  |  | 0.154 | 0.231 | 0.18 | 0.0502 | 0.0365 |  |  |  |  | 
NCI-H1623 |  |  |  |  |  |  |  |  |  |  | 0.538 | 0.594 | 0.623 | 0.577 | 0.307 |  |  |  |  | 
NCI-H596 | 0.921 | 0.817 | 0.925 | 0.123 | 0.131 | 0.516 | 0.504 | 0.459 | 0.467 | 0.429 | 0.737 | 0.474 | 0.828 | 0.267 | 0.211 |  |  |  |  | 
IA-LM | 1.07 | 0.865 | 0.994 | 0.0167 | 0.0073 |  |  |  |  |  |  |  |  |  |  |  |  |  |  | 
